In the supplement of paper PMC10307832:

Experiments:
XMD13-2 = compound: C1CC1C(=O)NC2=NNC3=C2C=CC(=C3)C4=CC(=CC=C4)C(=O)NC5CC5 [XMD13-2]; test: relative viability (nuclei count vs DMSO), 5 days (fraction); higher = more cells survive
Summary of the method: (§1)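 On vehicle-anchored 1536-well plates, lung cancer cell lines held overnight at 37 °C were pinned with five library-drug doses (not always all listed) spaced by √10. With no medium change over 5 days, they were then fixed, permeabilised and Hoechst-stained in one step and imaged at 4×. MetaXpress counted nuclei, and viability is the median across plates of treated-well over vehicle-well nuclei. Acceptance needed control CV below 25% and at least one doubling.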

Dasatinib = compound: Cc1nc(Nc2ncc(C(=O)Nc3c(C)cccc3Cl)s2)cc(N2CCN(CCO)CC2)n1 [Dasatinib]; test: as above
Summary of the method: as §1

Row | Cell Line | relative viability (XMD13-2; 0.05 µM) | relative viability (XMD13-2; 0.1581 µM) | relative viability (XMD13-2; 0.5 µM) | relative viability (XMD13-2; 1.581 µM) | relative viability (XMD13-2; 5 µM) | relative viability (Dasatinib; 0.005 µM) | relative viability (Dasatinib; 0.01581 µM) | relative viability (Dasatinib; 0.05 µM) | relative viability (Dasatinib; 0.075 µM, anchor plate) | relative viability (Dasatinib; 0.1581 µM) | relative viability (Dasatinib; 0.5 µM)
1 | 201T | 1.02 | 1.03 | 1.02 | 1 | 1.02 | 0.991 | 0.766 | 0.82 | 0.583 | 0.602 | 0.417
2 | A549 | 1.28 | 1.02 | 1.06 | 0.963 | 0.962 | 0.989 | 0.85 | 0.914 | – | 0.626 | 0.346
3 | A-427 | 1.12 | 0.921 | 1.01 | 0.904 | 0.744 | 0.983 | 0.889 | 0.811 | 0.698 | 0.634 | 0.623
4 | ABC-1 | 1.02 | 0.873 | 1.01 | 0.745 | 0.472 | 0.905 | 0.862 | 0.785 | 0.641 | 0.564 | 0.654
5 | BEN | 1.07 | 1.01 | 0.992 | 0.874 | 0.933 | 0.776 | 0.552 | 0.487 | 0.322 | 0.423 | 0.376
6 | CAL-12T | 1.05 | 0.961 | 1.06 | 0.887 | 1.02 | 1.02 | 0.998 | 1.12 | 0.486 | 0.795 | 0.416
7 | COR-L23 | 1.21 | 0.993 | 1.11 | 0.969 | 0.986 | 1.01 | 0.852 | 0.923 | 0.477 | 0.614 | 0.519
8 | COR-L 105 | 1.25 | 1.08 | 0.911 | 0.947 | 0.858 | 0.847 | 0.692 | 0.625 | 0.386 | 0.39 | 0.326
9 | Calu-6 | 1.05 | 1.08 | 1.07 | 0.99 | 1.04 | 0.895 | 0.766 | 0.712 | – | 0.627 | 0.554
10 | ChaGo-K-1 | 1.02 | 0.99 | 1.04 | 1.03 | 0.93 | 0.967 | 0.976 | 0.897 | 0.597 | 0.859 | 0.686
11 | EBC-1 | 1.07 | 1.09 | 1 | 0.858 | 0.508 | 1.03 | 0.893 | 0.894 | – | 0.831 | 0.736
12 | EKVX | 1.08 | 0.915 | 0.969 | 0.923 | 1.07 | 0.932 | 0.879 | 0.807 | 0.605 | 0.68 | 0.176
13 | EMC-BAC-2 | 1.13 | 0.896 | 1.02 | 0.616 | 0.79 | 0.884 | 0.786 | 0.657 | 0.336 | 0.472 | 0.344
14 | EPLC-272H | 1.18 | 0.882 | 1.16 | 0.738 | 0.646 | 0.965 | 0.916 | 0.882 | 0.356 | 0.71 | 0.295
15 | H3255 | 1.18 | 0.949 | 0.95 | 0.892 | 0.895 | 0.971 | 1 | 0.881 | 0.402 | 0.812 | 0.433
16 | HARA | 1.13 | 0.95 | 0.963 | 0.943 | 1.12 | 0.797 | 0.73 | 0.647 | 0.288 | 0.3 | 0.175

Row | Cell Line | relative viability (XMD13-2; 0.05 µM) | relative viability (XMD13-2; 0.1581 µM) | relative viability (XMD13-2; 0.5 µM) | relative viability (XMD13-2; 1.581 µM) | relative viability (XMD13-2; 5 µM) | relative viability (Dasatinib; 0.005 µM) | relative viability (Dasatinib; 0.01581 µM) | relative viability (Dasatinib; 0.05 µM) | relative viability (Dasatinib; 0.075 µM, anchor plate) | relative viability (Dasatinib; 0.1581 µM) | relative viability (Dasatinib; 0.5 µM)
17 | HCC-15 | 1.11 | 0.931 | 1.01 | 0.98 | 0.904 | 1.03 | 0.991 | 0.928 | 0.651 | 0.854 | 0.726
18 | HCC-44 | 0.988 | 0.996 | 1.05 | 0.978 | 1.03 | 1.12 | 0.994 | 1.04 | – | 0.961 | 0.533
19 | HCC-78 | 1.06 | 0.934 | 0.981 | 0.908 | 0.962 | 0.551 | 0.764 | 0.721 | 0.408 | 0.658 | 0.314
20 | HCC-366 | 1.08 | 0.918 | 0.991 | 0.979 | 1.03 | 0.805 | 0.748 | 0.608 | 0.682 | 0.728 | 0.52
21 | HCC-827 | 1.06 | 1.01 | 1.02 | 0.973 | 0.944 | 1.05 | 0.926 | 1.04 | 0.324 | 0.953 | 0.126
22 | HOP-62 | 1.04 | 0.955 | 1.1 | 0.953 | 1.02 | 1.06 | 1 | 0.932 | 0.68 | 0.945 | 0.367
23 | IA-LM | 0.967 | 0.982 | 0.977 | 0.87 | 0.883 | 1.01 | 0.994 | 1 | – | 0.781 | 0.564
24 | LC-2-ad | 1.03 | 1.04 | 1.03 | 0.94 | 0.994 | 1 | 0.984 | 0.924 | 0.601 | 0.674 | 0.35
25 | LCLC-97TM1 | 0.974 | 0.917 | 0.95 | 0.7 | 0.903 | 1.17 | 0.97 | 1.05 | 0.837 | 1 | 0.561
26 | LCLC-103H | 1.09 | 0.997 | 0.969 | 0.987 | 1.05 | 0.997 | 0.855 | 0.82 | 0.475 | 0.669 | 0.382
27 | LK-2 | 1.24 | 0.904 | 1.05 | 0.915 | 0.966 | 0.943 | 0.569 | 0.587 | 0.311 | 0.297 | 0.257
28 | LOU-NH91 | 1.12 | 0.979 | 0.965 | 0.85 | 1.15 | 0.839 | 0.893 | 0.724 | 0.558 | 0.587 | 0.422
29 | LU99A | 1.05 | 1.05 | 1.01 | 1.03 | 0.927 | 0.807 | 0.629 | 0.896 | 0.539 | 0.663 | 0.48
30 | LXF-289 | 1.07 | 1.02 | 1.04 | 1.07 | 1.05 | 1.03 | 1.07 | 1.08 | 0.227 | 0.485 | 0.226
31 | NCI-H23 | 1.04 | 0.907 | 1.04 | 0.801 | 1.07 | 0.923 | 0.857 | 0.858 | 0.866 | 0.6 | 0.482
